Source: patent US10131652B2, “Pyrimidinyloxy benzene derivatives as herbicides” (E. I. DU PONT DE NEMOURS AND COMPANY, priority 2014, dated 2018)
Like-named read-outs stand apart in the source and are kept apart here.

Legend:
Experiment in all cases: Test D pre-/postemergence plant response
Type in all cases: in vivo
[1] = system: Italian ryegrass (Lolium multiflorum); conditions: Lolium multiflorum; for pest or weed control at 31 g/ha: 31 g ai/ha; for pest or weed control at 62 g/ha: 62 g ai/ha; for pest or weed control at 125 g/ha: 125 g ai/ha; for pest or weed control at 250 g/ha: 250 g ai/ha
Outline: (§1)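 Test chemicals were formulated in a non-phytotoxic solvent mixture containing surfactant and applied either preemergence to seeds in loam–sand soil or postemergence to plants 2 to 18 cm tall (1- to 4-leaf stage). Response was rated visually against controls after 13 to 15 days, from 0 (none) to 100 (complete control).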

[2] = system: barnyardgrass (Echinochloa crus-galli); conditions: Echinochloa crus-galli; for pest or weed control at 31 g/ha: 31 g ai/ha, scale 0 to 100 (0 no effect, 100 complete control); for pest or weed control at 62 g/ha: 62 g ai/ha; for pest or weed control at 125 g/ha: 125 g ai/ha; for pest or weed control at 250 g/ha: 250 g ai/ha
Outline: as §1

[3] = system: blackgrass (Alopecurus myosuroides); conditions: Alopecurus myosuroides; for pest or weed control at 31 g/ha: 31 g ai/ha; for pest or weed control at 62 g/ha: 62 g ai/ha; for pest or weed control at 125 g/ha: 125 g ai/ha; for pest or weed control at 250 g/ha: 250 g ai/ha
Outline: as §1

corn (Zea mays) = conditions: Zea mays; for Corn plant response rating (crop injury, 0 = no effect, 100 = complete kill) at 62 g/ha: 62 g ai/ha
Outline: as §1

[4] = system: giant foxtail (Setaria faberii); conditions: Setaria faberi; for pest or weed control at 31 g/ha: 31 g ai/ha; for pest or weed control at 62 g/ha: 62 g ai/ha; for pest or weed control at 125 g/ha: 125 g ai/ha; for pest or weed control at 250 g/ha: 250 g ai/ha
Outline: as §1

[5] = system: lambsquarters (Chenopodium album); conditions: Chenopodium album; for pest or weed control at 31 g/ha: 31 g ai/ha; for pest or weed control at 62 g/ha: 62 g ai/ha; for pest or weed control at 125 g/ha: 125 g ai/ha; for pest or weed control at 250 g/ha: 250 g ai/ha
Outline: as §1

[6] = post-emergence, Postemergence, scale 0 to 100, 0 no effect, 100 complete control, read-out: Plant response rating, Ryegrass, Italian
[7] = pre-emergence, Preemergence, read-out: Plant response rating (scale 0 to 100), Ryegrass, Italian
[8] = pre-emergence, Preemergence, scale 0 to 100 (0 no effect, 100 complete control), read-out: Plant response rating, Ryegrass, Italian
[9] = post-emergence, Postemergence, scale 0 to 100, 0 no effect, 100 complete control, read-out: Plant response rating, Barnyardgrass
[10] = pre-emergence, Preemergence, read-out: Plant response rating (scale 0 to 100), Barnyardgrass
[11] = post-emergence, Postemergence, scale 0 to 100, 0 no effect, 100 complete control, read-out: Plant response rating, Blackgrass
[12] = pre-emergence, Preemergence, read-out: Plant response rating (scale 0 to 100), Blackgrass
[13] = pre-emergence, Preemergence, scale 0 to 100 (0 no effect, 100 complete control), read-out: Plant response rating, Blackgrass
[14] = post-emergence, Postemergence, scale 0 to 100, 0 no effect, 100 complete control, read-out: Plant response rating, Foxtail, Giant
[15] = pre-emergence, Preemergence, read-out: Plant response rating (scale 0 to 100), Foxtail, Giant
[16] = pre-emergence, Preemergence, scale 0 to 100 (0 no effect, 100 complete control), read-out: Plant response rating, Foxtail, Giant
[17] = post-emergence, Postemergence, scale 0 to 100, 0 no effect, 100 complete control, read-out: Plant response rating, Lambsquarters
[18] = pre-emergence, Preemergence, read-out: Plant response rating (scale 0 to 100), Lambsquarters
[19] = pre-emergence, Preemergence, scale 0 to 100 (0 no effect, 100 complete control), read-out: Plant response rating, Lambsquarters

FC(F)c1cc(-c2ccccc2Oc2ncc(Br)cn2)no1 [Compound 62, 5-bromo-2-[2-[5-(difluoromethyl)-3-isoxazolyl]phenoxy]pyrimidine]
40%: pest or weed control at 250 g/ha [1, 6] | pest or weed control at 31 g/ha [1, 8] | pest or weed control at 125 g/ha [3, 11]
98%: pest or weed control at 62 g/ha [2, 10] | pest or weed control at 31 g/ha ([5]; post-emergence, Postemergence, scale 0 to 100 (0 no effect, 100 complete control), read-out: Lambsquarters plant response rating) | pest or weed control at 62 g/ha [5, 17] | pest or weed control at 125 g/ha [5, 18]
60%: pest or weed control at 62 g/ha [1, 8] | pest or weed control at 250 g/ha [3, 11] | plant injury at 125 g/ha (corn (Zea mays); pre-emergence, Preemergence, 125 g ai/ha, read-out: Plant response rating (scale 0 to 100), Corn)
10%: plant injury at 31 g/ha (corn (Zea mays); post-emergence, Postemergence, 31 g ai/ha, scale 0 to 100 (0 no effect, 100 complete control), read-out: Corn plant response rating) | Corn plant response rating (crop injury, 0 = no effect, 100 = complete kill) at 62 g/ha (corn (Zea mays); post-emergence, Postemergence, scale 0 to 100, 0 no effect, 100 complete control) | Corn plant response rating (crop injury, 0 = no effect, 100 = complete kill) at 250 g/ha (corn (Zea mays); post-emergence, Postemergence, 250 g ai/ha, scale 0 to 100, 0 no effect, 100 complete control)
25%: pest or weed control at 62 g/ha [3, 11] | pest or weed control at 31 g/ha ([4]; post-emergence, Postemergence, scale 0 to 100 (0 no effect, 100 complete control), read-out: Foxtail, Giant plant response rating) | pest or weed control at 62 g/ha [4, 14]
5%: pest or weed control at 31 g/ha ([1]; post-emergence, Postemergence, scale 0 to 100 (0 no effect, 100 complete control), read-out: Ryegrass, Italian plant response rating) | pest or weed control at 62 g/ha [1, 6] | pest or weed control at 31 g/ha [3, 13]
100%: pest or weed control at 125 g/ha [2, 10] | pest or weed control at 250 g/ha [2, 10] | pest or weed control at 125 g/ha [4, 15] | pest or weed control at 250 g/ha [4, 15] | pest or weed control at 62 g/ha [4, 16] | pest or weed control at 125 g/ha [5, 17] | pest or weed control at 250 g/ha [5, 17] | pest or weed control at 250 g/ha [5, 18] | pest or weed control at 31 g/ha [5, 19]
95%: pest or weed control at 250 g/ha [1, 7] | pest or weed control at 250 g/ha [2, 9] | pest or weed control at 31 g/ha [4, 16] | pest or weed control at 62 g/ha [5, 19]
35%: pest or weed control at 62 g/ha [2, 9] | Corn plant response rating (crop injury, 0 = no effect, 100 = complete kill) at 31 g/ha (corn (Zea mays); pre-emergence, Preemergence, 31 g ai/ha, scale 0 to 100 (0 no effect, 100 complete control))
90%: pest or weed control at 125 g/ha [1, 7] | pest or weed control at 125 g/ha [3, 12] | pest or weed control at 250 g/ha [3, 12] | pest or weed control at 62 g/ha [3, 13]
15%: Corn plant response rating (crop injury, 0 = no effect, 100 = complete kill) at 125 g/ha (corn (Zea mays); post-emergence, Postemergence, 125 g ai/ha, scale 0 to 100, 0 no effect, 100 complete control)
30%: pest or weed control at 125 g/ha [1, 6] | pest or weed control at 125 g/ha [2, 9] | Corn plant response rating (crop injury, 0 = no effect, 100 = complete kill) at 62 g/ha (corn (Zea mays); pre-emergence, Preemergence, scale 0 to 100 (0 no effect, 100 complete control))
20%: pest or weed control at 31 g/ha ([3]; post-emergence, Postemergence, scale 0 to 100 (0 no effect, 100 complete control), read-out: Blackgrass plant response rating) | pest or weed control at 125 g/ha [4, 14]
55%: pest or weed control at 250 g/ha [4, 14]
50%: pest or weed control at 31 g/ha ([2]; post-emergence, Postemergence, read-out: Barnyardgrass plant response rating) | pest or weed control at 31 g/ha ([2]; pre-emergence, Preemergence, read-out: Plant response rating, Barnyardgrass)
70%: plant injury at 250 g/ha (corn (Zea mays); pre-emergence, Preemergence, 250 g ai/ha, read-out: Plant response rating (scale 0 to 100), Corn)
